These results are taken from patent US11034692B1 (Genentech, Inc., priority 2017, dated 2021).

The structures appear in SMILES notation.

By Ki is commonly meant a measure of affinity in units of concentration, obtained from inhibition or displacement.

Sequence of HPK1 (Q92918 whole entry, looked up): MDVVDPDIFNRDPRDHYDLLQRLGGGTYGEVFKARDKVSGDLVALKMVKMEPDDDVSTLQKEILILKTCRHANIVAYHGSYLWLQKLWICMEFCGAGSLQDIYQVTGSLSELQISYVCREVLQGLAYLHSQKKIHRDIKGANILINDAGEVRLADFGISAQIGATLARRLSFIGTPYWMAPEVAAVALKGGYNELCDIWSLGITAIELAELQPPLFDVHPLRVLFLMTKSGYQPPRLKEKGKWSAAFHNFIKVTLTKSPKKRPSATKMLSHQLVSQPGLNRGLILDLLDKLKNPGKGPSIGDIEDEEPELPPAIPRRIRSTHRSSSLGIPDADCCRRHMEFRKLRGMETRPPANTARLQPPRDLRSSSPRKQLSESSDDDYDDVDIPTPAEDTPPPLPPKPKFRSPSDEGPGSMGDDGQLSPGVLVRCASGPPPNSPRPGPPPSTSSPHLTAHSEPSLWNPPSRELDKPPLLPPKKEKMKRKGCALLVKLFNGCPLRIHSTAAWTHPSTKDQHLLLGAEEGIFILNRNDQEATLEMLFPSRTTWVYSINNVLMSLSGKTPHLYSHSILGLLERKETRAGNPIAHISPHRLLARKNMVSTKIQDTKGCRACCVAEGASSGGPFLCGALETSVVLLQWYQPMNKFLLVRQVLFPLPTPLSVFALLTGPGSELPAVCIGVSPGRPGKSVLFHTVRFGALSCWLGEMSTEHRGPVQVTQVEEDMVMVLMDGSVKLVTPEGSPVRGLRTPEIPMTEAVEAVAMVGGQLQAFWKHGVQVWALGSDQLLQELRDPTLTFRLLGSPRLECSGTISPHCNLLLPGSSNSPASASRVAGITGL

For the first assay, the target named is HPK1 (Homo sapiens, UniProt Q92918). As to the kind of experiment: HPK1 Lantha Binding Assay ("Lanth"). Particulars: Table B1-1, read-out: HPK1 Ki (μM) (Lanth). In outline:
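TR-FRET tracer displacement with 2 nM GST-tagged kinase, 2 nM Eu-anti-GST antibody and 15 nM Tracer222 at 23 C. Enzyme–antibody preincubated 1 h with compound, then tracer added for 1 h; 340 nm excitation, 615/665 nm emission. Ki from Morrison fit over an 11-point 5-fold dilution.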
Consider `CCS(=O)(=O)n1cc([C@H]2C[C@@H]2C(=O)Nc2cc3cc(-c4cnccc4C)nc(N)c3cn2)cn1` (racemic) [Compound 146, (±)-trans-N-[8-amino-6-(4-methyl-3-pyridyl)-2,7-naphthyridin-3-yl]-2-(1-ethylsulfonylpyrazol-4-yl)cyclopropanecarboxamide], for which the Ki worked out at 0.02 nM.

Regarding `Cc1ccncc1-c1cc2cc(NC(=O)[C@@H]3C[C@]34CCN(S(C)(=O)=O)C4)ncc2c(N)n1` (racemic) [Compound 148, (±)-trans-N-(8-amino-6-(4-methylpyridin-3-yl)-2,7-naphthyridin-3-yl)-5-(methylsulfonyl)-5-azaspiro[2.4]heptane-1-carboxamide], the Ki was 2.8 nM.

On to `Cc1ccncc1-c1cc2cc(NC(=O)[C@H]3C[C@]34CCN(S(C)(=O)=O)C4)ncc2c(N)n1` (racemic) [Compound 149, (±)-cis-N-(8-amino-6-(4-methylpyridin-3-yl)-2,7-naphthyridin-3-yl)-5-(methylsulfonyl)-5-azaspiro[2.4]heptane-1-carboxamide], for which the Ki turned out to be 0.78 nM.

Consider `Cc1c(N)cncc1-c1cc2cc(NC(=O)[C@@H]3C[C@H]3C#N)ncc2c(N)n1` (racemic) [Compound 165, (±)-trans-N-(8-amino-6-(5-amino-4-methylpyridin-3-yl)-2,7-naphthyridin-3-yl)-2-cyanocyclopropanecarboxamide], for which the Ki was found to be 0.95 nM.

Regarding `CC(=O)N1CCC([C@@H]2C[C@H]2C(=O)Nc2cc3cc(-c4cnccc4C)nc(N)c3cn2)CC1` (racemic) [Compound 166, (±)-trans-2-(1-acetylpiperidin-4-yl)-N-(8-amino-6-(4-methylpyridin-3-yl)-2,7-naphthyridin-3-yl)cyclopropanecarboxamide], the Ki is 1.5 nM.

For `Cc1cc(-c2ccc[nH]c2=O)ncc1-c1cc2cc(NC(=O)[C@H]3C[C@H]3F)ncc2c(N)n1` (racemic) [Compound 167, (±)-cis-N-(8-amino-6-(4-methyl-6-(2-oxo-1,2-dihydropyridin-3-yl)pyridin-3-yl)-2,7-naphthyridin-3-yl)-2-fluorocyclopropanecarboxamide], the Ki turned out to be 9.4 nM.

In the case of `Cc1ccncc1-c1cc2cc(NC(=O)NC(C)CO)ncc2c(N)n1` (racemic) [Compound 177, 1-(8-amino-6-(4-methylpyridin-3-yl)-2,7-naphthyridin-3-yl)-3-(1-hydroxypropan-2-yl)urea], the Ki turned out to be 8.5 nM.

In the case of `Cc1ccncc1-c1cc2cc(NC(=O)Nc3cnn(C(C)C#N)c3)ncc2c(N)n1` (racemic) [Compound 178, 1-[8-amino-6-(4-methyl-3-pyridyl)-2,7-naphthyridin-3-yl]-3-[1-(1-cyanoethyl)pyrazol-4-yl]urea], the Ki worked out at 0.25 nM.

As for `Cc1cc(N2CCC(N)C2)ncc1-c1cc2cc(NC(=O)C3CC3F)ncc2c(N)n1` (racemic) [Compound 179, (±)-cis-N-[8-amino-6-[6-[(3S)-3-aminopyrrolidin-1-yl]-4-methyl-3-pyridyl]-2,7-naphthyridin-3-yl]-2-fluoro-cyclopropanecarboxamide], the Ki was found to be 2.9 nM.

On to `CNC(=O)c1c(C)c(-c2cc3cc(NC(=O)[C@H]4C[C@@H]4C#N)ncc3c(N)n2)c(C)n1C` (racemic) [Compound 180, (±)-trans-4-[1-amino-6-[[trans-2-cyanocyclopropanecarbonyl]amino]-2,7-naphthyridin-3-yl]-N,1,3,5-tetramethyl-pyrrole-2-carboxamide], for which the Ki amounted to 44 nM.

Take `N#C[C@H]1C[C@@H]1C(=O)Nc1cc2cc(-c3cnccc3CCO)nc(N)c2cn1` (racemic) [Compound 191, (±)-trans-N-(8-amino-6-(4-(2-hydroxyethyl)pyridin-3-yl)-2,7-naphthyridin-3-yl)-2-cyanocyclopropanecarboxamide]: the inhibition constant (Ki) was 2.7 nM.

In the case of `Cc1ccncc1-c1nc(N)c2cnc(NC(=O)C3CC3)cc2c1C1=CC(O)CC1` (racemic) [Compound 204, N-(8-amino-5-(3-hydroxycyclopent-1-enyl)-6-(4-methylpyridin-3-yl)-2,7-naphthyridin-3-yl)cyclopropanecarboxamide], the Ki was found to be 0.99 nM.

On to `Cc1ccncc1-c1nc(N)c2cnc(NC(=O)[C@@H]3C[C@H]3CC#N)cc2c1C` (racemic) [Compound 205, (+/−)-trans-N-(8-amino-5-methyl-6-(4-methylpyridin-3-yl)-2,7-naphthyridin-3-yl)-2-(cyanomethyl)cyclopropanecarboxamide], for which the Ki turned out to be 0.0881 nM.

On to `Cc1ccncc1-c1nc(N)c2cnc(NC(=O)[C@H]3C[C@@H]3CC#N)cc2c1Br` (racemic) [Compound 210, (+/−)-N-(8-amino-5-bromo-6-(4-methylpyridin-3-yl)-2,7-naphthyridin-3-yl)-2-(cyanomethyl)cyclopropanecarboxamide], for which the Ki is 0.258 nM.

On to `Cc1ccncc1-c1cc2cc(NC(=O)[C@@H]3C[C@H]3CC#N)ncc2c(N)n1` (racemic) [Compound 212, (+/−)-trans-N-(8-amino-6-(4-methylpyridin-3-yl)-2,7-naphthyridin-3-yl)-2-(cyanomethyl)cyclopropanecarboxamide], for which the Ki came out at 0.685 nM.

As to `Cc1ccncc1-c1cc2cc(Nc3cnn(C(C)CO)c3)ncc2c(N)n1` (racemic) [Compound 213, (+/−)-2-(4-(8-amino-6-(4-methylpyridin-3-yl)-2,7-naphthyridin-3-ylamino)-1H-pyrazol-1-yl)propan-1-ol], the Ki was found to be 0.957 nM.

As to `CNc1cncc(-c2cc3cc(NC(=O)[C@@H]4C[C@@H]4F)ncc3c(N)n2)c1C` (racemic) [Compound 216, (+/−)-cis-N-(8-amino-6-(4-methyl-5-(methylamino)pyridin-3-yl)-2,7-naphthyridin-3-yl)-2-fluorocyclopropanecarboxamide], the Ki was determined as 3.53 nM.

In the case of `CC(=O)N1CCC(n2cc(Nc3cc4cc(-c5cnccc5C)nc(N)c4cn3)cn2)C1` (racemic) [Compound 218, (+/−)-1-(3-(4-(8-amino-6-(4-methylpyridin-3-yl)-2,7-naphthyridin-3-ylamino)-1H-pyrazol-1-yl)pyrrolidin-1-yl)ethanone], the Ki came out at 0.02 nM.

In the case of `Cc1ccncc1-c1cc2cc(Nc3cnn([C@H]4CCN(C5COC5)C[C@@H]4O)c3)ncc2c(N)n1` (racemic) [Compound 220, (+/−)-trans-4-(4-(8-amino-6-(4-methylpyridin-3-yl)-2,7-naphthyridin-3-ylamino)-1H-pyrazol-1-yl)-1-(oxetan-3-yl)piperidin-3-ol], the Ki was 0.592 nM.

Turning to `Cc1ccncc1-c1cc2cc(Nc3cc(C(C)O)n(C)n3)ncc2c(N)n1` (racemic) [Compound 221, (+/−)-1-(3-(8-amino-6-(4-methylpyridin-3-yl)-2,7-naphthyridin-3-ylamino)-1-methyl-1H-pyrazol-5-yl)ethanol], the Ki amounted to 0.026 nM.

With `N#Cc1ccccc1-c1cc2cc(NC(=O)[C@H]3C[C@@H]3C#N)ncc2c(N)n1` (racemic) [Compound 224, (+/−)-trans-N-(8-amino-6-(2-cyanophenyl)-2,7-naphthyridin-3-yl)-2-cyanocyclopropanecarboxamide], the Ki is 15.2 nM.

In the case of `CC(C)(O)Cc1ccncc1-c1cc2cc(NC(=O)[C@H]3C[C@@H]3C#N)ncc2c(N)n1` (racemic) [Compound 225, (+/−)-trans-N-(8-amino-6-(4-(2-hydroxy-2-methylpropyl)pyridin-3-yl)-2,7-naphthyridin-3-yl)-2-cyanocyclopropanecarboxamide], the Ki worked out at 84.2 nM.

Regarding `CNC(=O)c1cncc(-c2cc3cc(NC(=O)[C@@H]4C[C@@H]4F)ncc3c(N)n2)c1C` (racemic) [Compound 226, cis-5-(1-amino-6-(-2-fluorocyclopropanecarboxamido)-2,7-naphthyridin-3-yl)-N,4-dimethylnicotinamide], the Ki was 58.6 nM.

`N#CCc1ccncc1-c1cc2cc(NC(=O)[C@H]3C[C@@H]3C#N)ncc2c(N)n1` (racemic) [Compound 227, (+/−)-trans-N-(8-amino-6-(4-(cyanomethyl)pyridin-3-yl)-2,7-naphthyridin-3-yl)-2-cyanocyclopropanecarboxamide]: the Ki was found to be 38.7 nM.

For the molecule `COCc1ccncc1-c1cc2cc(NC(=O)[C@H]3C[C@@H]3C#N)ncc2c(N)n1` (racemic) [Compound 228, (+/−)-trans-N-(8-amino-6-(4-(methoxymethyl)pyridin-3-yl)-2,7-naphthyridin-3-yl)-2-cyanocyclopropanecarboxamide], the Ki came to 11 nM.

Turning to `Cc1ccc(O)cc1-c1cc2cc(NC(=O)[C@H]3C[C@@H]3c3cnn(C)c3)ncc2c(N)n1` (racemic) [Compound 268, (+/−)-trans-N-[8-amino-6-(5-hydroxy-2-methylphenyl)-2,7-naphthyridin-3-yl]-2-(1-methyl-1H-pyrazol-4-yl)cyclopropane-1-carboxamide], the Ki worked out at 0.147 nM.

With `Cc1cc(C(=O)O)ncc1-c1cc2cc(NC(=O)[C@H]3C[C@@H]3c3cnn(C)c3)ncc2c(N)n1` (racemic) [Compound 342, (±)-trans-5-(1-amino-6-((1S,2S)-2-(1-methyl-1H-pyrazol-4-yl)cyclopropane-1-carboxamido)-2,7-naphthyridin-3-yl)-4-methylpicolinic acid], the Ki was 1.43 nM.

On to `CNC(=O)c1cc(C)c(-c2cc3cc(NC(=O)[C@H]4C[C@@H]4c4cnn(C)c4)ncc3c(N)n2)cn1` (racemic) [Compound 346, (±)-5-(1-amino-6-((trans)-2-(1-methyl-1H-pyrazol-4-yl)cyclopropane-1-carboxamido)-2,7-naphthyridin-3-yl)-N,4-dimethylpicolinamide], for which the Ki worked out at 2.44 nM.

The assay is the same for the next values; noted with them: Table B1-2, read-out: HPK1 Ki, L = Lanth.
Turning to `Cc1cccc(CC#N)c1-c1cc2cc(NC(=O)[C@H]3C[C@@H]3c3cnn(C)c3)ncc2c(N)n1` (racemic) [Compound 382, (+/−)-trans-N-(8-amino-6-(2-(cyanomethyl)-6-methylphenyl)-2,7-naphthyridin-3-yl)-2-(1-methyl-1H-pyrazol-4-yl)cyclopropane-1-carboxamide], the Ki was 14 nM.
